Results taken from patent US6096779A, “Amorphous piretanide, piretanide polymorphs, process for their preparation and their use” (Hoechst Pharmaceuticals & Chemicals K.K., priority 1995, dated 2000).
In brackets after ≈: the same amount, converted by molar mass. Read-outs that look alike come from different tables or passages of the source.

How the values were obtained:
[1] = Solubility in buffers at various pH values by dissolution tester, absorbance at 275 nm, 37° C.; format: physicochemical; conditions: for solubility in a buffer at a pH value of 1: pH 1, potassium chloride-hydrochloric acid buffer
Procedure: The amorphous piretanide obtained as described in Example 1 was analyzed for solubility in a buffer at various pH values by means of a dissolution tester, using piretanide form A as a control.
(§1) A sufficient amount of the amorphous piretanide to ensure supersaturation was added to 500 ml each of the buffers at various pH values as indicated below, and about 10 ml of a solution was sampled at appropriate intervals and filtered using a 0.45 μm filter. About 5 ml of the initial solution was discarded and the remainder was used as a sample solution and, if required, diluted with the same buffer. Solubility was determined by absorbance at 275 nm.
Buffer: pH 1 Potassium chloride-hydrochloric acid system
pH 3 Sodium chloride-glycine-hydrochloric acid system
pH 6.8 JP XII, second fluid
Solution temperature: 37° C.
The piretanide polymorph obtained as described in Example 6 was analyzed for solubility in a buffer at various pH values by means of a dissolution tester, using piretanide form A as a control.
as §1, with “buffer, if necessary, solubility” for “buffer. Solubility”

[2] = cited from earlier work; for solubility in a buffer at a pH value of 3: pH 3, 37° C.; for solubility at a pH value of 6.8: pH 6.8, 37° C.
[3] = Solubility in buffers at various pH values by dissolution tester, absorbance at 275 nm, 37° C.; format: physicochemical; conditions: pH 1, 37° C., vs piretanide form B
[4] = pH 3, sodium chloride-glycine-hydrochloric acid buffer

Row | solubility in a buffer at a pH value of 1 [1] | solubility in a buffer at a pH value of 3 [1, 4] | solubility in a buffer at a pH value of 6.8 ([1]; pH 6.8, JP XII second fluid) | solubility ([1]; jp xii second fluid, pH 6.8, pH 6.8, JP XII second fluid, read-out: solubility in a buffer at a pH value of 6.8 (control, unit as printed)) | solubility ([1]; jp xii second fluid, pH 6.8, pH 6.8, JP XII second fluid, read-out: solubility in a buffer at a pH value of 6.8) | solubility ([1]; nacl-glycine-hcl buffer, pH 3, aqueous buffer, pH 3, sodium chloride-glycine-hydrochloric acid buffer, read-out: solubility in a buffer at a pH value of 3) | SMILES | solubility in a buffer at a pH value of 1 ([2]; pH 1, 37° C., background) | solubility in a buffer at a pH value of 3 ([2]; background) | solubility at a pH value of 6.8 ([2]; background) | water solubility ([2]; water, 20° C.) | solubility compared with piretanide form B, pH 1 (in words) [3]
1 | 15.2 mg/100 ml | 6.5 mg/100 ml | 901.3 mg/100 ml | – | – | – | NS(=O)(=O)c1cc(C(=O)O)cc(N2CCCC2)c1Oc1ccccc1 [amorphous piretanide, 4-phenoxy-3-(1-pyrrolidinyl)-5-sulfamoyl-benzoicacid] | – | – | – | – | –
2 | 7.5 mg/100 ml | 4.2 mg/100 ml | – | 1940 µg/mL (≈ 5.35 mM) | – | – | NS(=O)(=O)c1cc(C(=O)O)cc(N2CCCC2)c1Oc1ccccc1 [piretanide form A, 4-phenoxy-3-(1-pyrrolidinyl)-5-sulfamoyl-benzoicacid] | 7.5 mg/100 ml | 4.2 mg/100 ml | 193.8 mg/100 ml | 7.9 mg/100 ml | –
3 | – | – | – | – | – | – | NS(=O)(=O)c1cc(C(=O)O)cc(N2CCCC2)c1Oc1ccccc1 [piretanide form B, 4-phenoxy-3-(1-pyrrolidinyl)-5-sulfamoyl-benzoicacid] | – | 6.4 mg/100 ml | 195.4 mg/100 ml | – | –
4 | 12.2 mg/100 ml | – | – | – | 9270 µg/mL (≈ 25.6 mM) | 67 µg/mL (≈ 0.185 mM) | NS(=O)(=O)c1cc(C(=O)O)cc(N2CCCC2)c1Oc1ccccc1 [piretanide polymorph, 4-phenoxy-3-(1-pyrrolidinyl)-5-sulfamoyl-benzoicacid] | – | – | – | – | approximately similar solubility to that of piretanide form B
